Like-named read-outs stand apart in the source and are kept apart here. A value given as a limit tells only on which side of the number the result lay.

For one test, the system named is HepG2 cells. Nature of the test: Mitochondrial membrane potential (MITO-ID MP detection Kit). It counts as cell-based. The conditions noted are these: Homo sapiens, 168 h, 7 days, read-out: % increase in Mitochondrial Membrane Potential. As to the method: HepG2 cells (ATCC, HB-8065) were cultured (5% CO2 at 37° C.) and plated in Poly-D-Lysine 384-Well plate (Corning, 356663) at a density of 160000 cells/mL in 50 μL/well. Culture and assay media consisted of DMEM (Gibco, 11995-065) supplemented with 1% Penicillin-Streptomycin and 10% FBS (Hyclone, SV30087.03).
MITO-ID® MP detection Kit (ENZ-51018) was used and manufacturer instructions followed. Cells were allowed to settle for 30 min at room temperature and further incubated overnight (37° C. and 5% CO2) for adherence. Next day, test compounds (50-10 μM) and vehicle DMSO (0.2%) were added at the recommended volumes to the 384-well plate for 7 days without media change using a Tecan compound dispenser. All the solutions and wash buffers were prepared and dispensed according to manufacturer's volumes for a 384-well plate format.

Test [1] concerns Propionic Acidemia (PA) primary fibroblasts Tsi 6337. In words: Mitochondrial respiration, XFe96 Extracellular Flux Analyzer (OCR/ECAR), PA fibroblasts Tsi 6337. It counts as cell-based. The conditions noted are these: Homo sapiens, Fibroblast, read-out: Increase in Maximal Respiratory Capacity AUC. Here is the method: The effect of the compounds of the present disclosure on mitochondrial respiration was measured with a XFe96 Extracellular Flux Analyzer (Seahorse Bioscience, Agilent Technologies) and Oxygen consumption Rate (OCR) and Extracellular acidification rate (ECAR) determined.
Cell culture and treatments. Primary adherent fibroblasts were cultured in minimum essential medium (MEM) (Gibco, 25030081) supplemented with 2 mM L-Glutamine (Gibco, 25030081), 15% fetal bovine serum (FBS) (Gibco, 26400044) and 1% penicillin/streptomycin (Gibco, 5140122) at 37° C. and 5% CO2. Cells were collected for either passaging or experiment at ˜70-80% confluence. Cells were obtained by trypsinization and seeded at 20000 cells/well in cell culture microplates (Seahorse Bioscience, 101085-004) and allowed to adhere for 16 hours in culture media.
By profiling different primary cells and/or optimizing their culture media or environmental components one can select cell lines and/or conditions that are appropriate for the biological or disease model. In the present example, 24 hours prior to OCR and ECAR profiling, media was changed to Dulbecco's Modified Eagle Medium (DMEM, Agilent Seahorse 103575-100) with the appropriate supplements for the different primary cells (10 mM glucose, 2 mM L-glutamine, 1 mM pyruvate, 10% FBS; 1 mM glucose, 2 mM L-glutamine, 1 mM pyruvate, 10% FBS; 10 mM glucose, 10% FBS; 5 mM glucose 10% FBS; 1 mM glucose 10% FBS). Cells used in this example were: Propionic Acidemia (PA) (GM00371, GM03590 Coriell Institute for Medical Research, Tsi 6337, Tsi 4626, Tsi 3618 Trans-Hit Bio), Methylmalonic Acidemia (MMA) (GM01673, Coriell Institute for Medical Research, Tsi 5224 Trans-Hit Bio), Branched chain ketoacid dehydrogenase kinase (BCKDK) (GM00612, GM00649 Coriell Institute for Medical Research), Subnormal activation of pyruvate dehydrogenase complex (PDH) (GM01503 Coriell Institute for Medical Research), Very long-chain acyl-CoA dehydrogenase (VLCAD) (GM17475), Leigh Syndrome (LS) (GM03672, GM13411 Coriell Institute for Medical Research), Pyruvate Carboxylase Deficiency (PC) (GM00444 Coriell Institute for Medical Research), Glutaric Acidemia-I (GA) (GM10653), Friedreich's Ataxia (FXN) (GM04078 Coriell Institute for Medical Research, Huntington's disease (HD) (GM21756 Coriell Institute for Medical Research), Ornithine Transcarbamylase Deficiency (OTC) (GM12756 Coriell Institute for Medical Research), Kearns-Sayre Syndrome (KSS) (GM06225 Coriell Institute for Medical Research).
One hour before the assay, the cells were washed with freshly prepared unbuffered serum free-Seahorse XF Assay medium (Seahorse Bioscience, North America, USA, 103575-100) with the same supplements as for the previous 24 hour incubation.
After baseline measurements of OCR, cells were challenged with compounds of the present disclosure at different concentrations (10 to 50 μM) or vehicle (DMSO, 0.1%) and a post-compound baseline was recorded. OCR was measured after sequentially adding to each well 1 μg/ml oligomycin (inhibitor of ATP synthase Sigma-Aldrich, 753531), then maximal OCR was determined with carbonyl cyanide 4-(trifluoromethoxy) phenylhydrazone (FCCP, Sigma-Aldrich, C2920), (uncoupler of oxidative phosphorylation) and 0.5 μM of rotenone (Sigma-Aldrich, R8875) plus antimycin A (Sigma-Aldrich, A8674) (inhibitors of mitochondrial complex I and III) for determination of rotenone-antimycin insensitive respiration together with Hoechst for nuclear staining in situ when normalized to cell counts. After the analysis and nuclear staining, the XFp microplate was transferred to the Cytation 5, and the nuclear images were captured, the individual nuclei were identified and counted by BioTek Gen5 software. Data were expressed as pmol of O2 per minute and normalized by nuclear staining and baselined to pre-compound addition.
Assay conditions were as stated below.
Assay specifics on assay conditions are indicated below when readouts were normalized to cell counts. […]

The test system of test [2] is primary fibroblasts (healthy controls and PA, MMA, BCKDK, PDH, VLCAD, LS, PC, GA, VLCFA, KSS, FXN, HD). Nature of the test: Measurement of ROS (H2DCFDA) in primary fibroblasts. The format is cell-based, human. The conditions noted are these: Homo sapiens, procedure Example 812. In a few lines: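 Patient and healthy-control primary fibroblasts switched to supplemented DMEM 24 h before assay, then treated with compound (10 μM) plus H2DCFDA (22 μM) for 2 h (PA, MMA lines) or 24 h (other lines). Kinetic fluorescence at 492/527 nm over 60 min; only live cells analysed.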

In test [3] the test system is Methylmalonic Acidemia (MMA) primary fibroblasts Tsi 5224. In words: Mitochondrial respiration, XFe96 Extracellular Flux Analyzer (OCR/ECAR), MMA fibroblasts Tsi 5224. It counts as cell-based. The conditions noted are these: Homo sapiens, Fibroblast, MMA Tsi 5224, assay condition C (10 mM glucose, 10% FBS), read-out: Increase in Spare Capacity AUC. The method, boiled down:
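Primary fibroblasts (20000 cells/well) were held 24 h in supplemented DMEM before Seahorse OCR/ECAR profiling. Compounds at 10 to 50 μM or 0.1% DMSO were injected after baseline, then oligomycin 1 μg/ml, FCCP, and rotenone/antimycin A 0.5 μM. Values were normalized to Hoechst nuclear counts, baselined to pre-compound, and expressed relative to vehicle.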

In test [4] the test system is monocyte-derived M1 macrophages. Nature of the test: M1 differentiation assay (macrophage TNFα, IL6, IL10 ELISA, FACS). It counts as cell-based, human. The conditions noted are these: Homo sapiens, Macrophage. The method, boiled down:
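CD14+ human blood monocytes (100,000) differentiated 6 days with 10 ng/ml GM-CSF plus compound at 10 or 50 μM, refreshed days 2 and 4. Matured 24 h with GM-CSF, IFNγ, LPS plus compound. Supernatant TNFα, IL6, IL10 by ELISA; FACS M1 phenotype CD86+CD68+CD163−.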

The subject of test [5] is primary culture of rat embryo mesencephalic cells (microglia, astrocytes and neurons) exposed to LPS. In words: Neuroprotective effect on damage induced by LPS on culture of mesencephalic neurons (NO, TNF-α, IL-1β, TH positive neurons). The conditions noted are these: Rattus norvegicus, Neuron, 120 h, 50 uM, after 5 days of LPS exposure; list at threshold 15%; read-out: % reversion of TH positive neurons. It counts as cell-based. As to the method:
Drug preparation. […] The stock solutions will be prepared 1000× the concentration in 100% DMSO. The final concentration of the vehicle (DMSO) is set at 0.1%.
Test animals. Pregnant Wistar rats (Janvier; France) are used for the study. They are group-housed and maintained in a room with controlled temperature (21-22° C.) and a reversed light-dark cycle (12h/12h; lights on: 17:30-05:30; lights off: 05:30-17:30) with food and water available ad libitum.
The protocol is performed in 3 independent cultures. For each culture, each condition is performed in sextuplicate.
Female rat of 15 days gestation is killed by cervical dislocation. Fetuses are removed from the uterus and their brains are harvested and placed in ice-cold medium (Leibovitz's L15 medium, Gibco). Only ventral mesencephalic flexure is used for the cell preparations. The midbrain is dissociated by trypsinization. The reaction is stopped, and the suspension is triturated and centrifuged. The pellet of dissociated cells is resuspended in culture medium consisted of DMEM-F12 (Gibco), containing 10% FBS (ATCC), 10% Horse serum (Gibco) and 2 mM L-glutamine (Gibco). Viable cells are counted and seeded on 96-well plates, precoated with poly-L-lysine. Cells are maintained in a humidified incubator at 37° C. in 5% CO2-95% air atmosphere. Half of the medium is changed on day 2 and day 5.
Treatment. On day 7, culture media are removed and replaced by new medium consisting of DMEM-F12 (Gibco) supplemented with 2% FBS (ATCC), 2% Horse serum (Gibco) and 2 mM L-glutamine (Gibco) and containing vehicle or test substances. After 1-hour exposure, LPS at 10 ng/ml is added and exposure further continued for 24 hours or 5 days period.
Inflammatory response measurement and neuronal death evaluation. NO production is measured in the media 24h and 5 days after LPS exposure using the Griess reagent kit (Molecular Probes). The Griess reagent Assay is a colorimetric reaction assay which measures the conversion of a sulfanilic salt into an azo dye product by nitrite. Visible wavelength absorbance data is collected using a 96-well plate reader at 570 nm (Multiskan EX, Thermo Fisher, France). IL-1β and TNF-α release are measured in the media 24h after LPS exposure using the ELISA development kit (PeproTech). The ELISA plate, previously coated with anti-IL-1β or anti-TNF-αantibody at 1 μg/ml, is incubated 1h with PBS containing 1% of BSA (bovine serum albumin). After washing four times with PBS containing 0.05% of Tween-20, the plate is successively incubated 2h with supernatant, 2h with biotinylated antibody at 0.5 μg/ml in PBS containing 0.1% of BSA and 0.05% of Tween-20, 45 min with Avidin-HRP conjugated at 1/2000 and 30 min with color ABTS substrate (Sigma). Visible wavelength absorbance data is collected using a 96-well plate reader at 405 nm with wavelength correction set at 650 nm (Multiskan EX, Thermo Fisher, France).
Immunodetection of tyrosine hydroxylase positive neurons. On day 12 (5 days after LPS exposure), cultures are fixed 30 min at 4° C. with paraformaldehyde in PBS (4%, Sigma). Then, cells are successively permeabilized with 0.1% Triton X100 for 30 min, saturated with PBS containing 3% of BSA (bovine serum albumin) and are incubated 2h with anti-tyrosine hydroxylase antibody (Sigma, 1:10000; clone TH-2) at 1/10 000 in PBS containing 0.5% of BSA. Cells are washed three times with PBS containing 0.5% of BSA, and they are incubated 1h with goat anti mouse antibody coupled with AF488 (Invitrogen A11001) diluted at 1/1000 in PBS containing 0.5% of BSA. Finally, nuclei are stained with DAPI at 1/1000 in PBS containing 0.5% of BSA. After rinsing with PBS, the plate is visualized and examined with Cell Insight HCS (Thermo Scientific) to determine the number of tyrosine hydroxylase positive cells per well.
Statistical Analysis. The drug-induced effect on NO and cytokines is calculated by setting the response of the LPS-stimulated control as 100%. […]

Where [6] appears, read: PA Tsi 6337, assay condition A (10 mM glucose, 2 mM L-glutamine, 1 mM pyruvate, 10% FBS).

Regarding `C[C@@H](CC(=O)SCCNC(=O)CCNC(=O)[C@H](O)C(C)(C)CO)OC(=O)CCC(=O)O` [Compound 1247, 4-{[(2S)-4-[(2-{3-[(2R)-2,4-dihydroxy-3,3-dimethylbutanamido]propanamido}ethyl)sulfanyl]-4-oxobutan-2-yl]oxy}-4-oxobutanoic acid], the activation at 50 µM with HepG2 cells (50 uM) is greater than 20%. Further, in test [1] (setting [6]), the activation at 10 µM is no less than 10%.
With `COC(=O)CCC(=O)OCC(C)(C)[C@@H](O)C(=O)NCCC(=O)NCCSC(=O)CCC(=O)OC` [Compound 1230], the activation at 10 µM in the test with HepG2 cells was greater than 30%; in test [1] (setting [6]) it was no less than 10%; in test [1] (PA Tsi 6337, assay condition D (1 mM glucose, 10% FBS)), no less than 10%.
In the case of `CC(C)(COC(=O)CCC(=O)O)[C@@H](OC(=O)CCC(=O)O)C(=O)NCCC(=O)NCCSC(=O)CCC(=O)O` [Compound 1233], the inhibition at 10 µM in test [2] (Fibroblast, BCKD GM00612, Assay Condition A, read-out: Decreased ROS by at least 10%) is no less than 10%; in test [2] (Fibroblast, VLCFA GM13262, Assay Condition C, read-out: Decreased ROS by at least 30%), no less than 30%; in test [2] (FXN GM04078, Assay Condition C, read-out: Decreased ROS by at least 10%), no less than 10%; in test [2] (FXN GM04078, Assay Condition C, read-out: Decreased ROS by at least 30%) it was no less than 30%. For the same compound, the activation at 10 µM in test [3] is no less than 50%; in test [1] (setting [6]), no less than 10%.
With `CC(C)(CO)[C@@H](O)C(=O)NCCC(=O)NCCSC(=O)C1CCC(=O)O1` (stereo partly drawn) [Compound 1229, S-2-{3-[(R)-2,4-dihydroxy-3,3-dimethylbutyrylamino]propionylamino} ethyl 5-oxo-3,4-dihydro-2H-furan-2-carbothioate], the figures for the activation at 10 µM (in the test on HepG2 cells; in test [1] (setting [6])) were greater than 20% and no less than 10%, respectively. Further, in test [4] (10 uM, read-out: % decrease in Macrophage IL-6 Secretion), the inhibition at 10 µM is no less than 30%. The activation at 50 µM in test [4] (50 uM, read-out: % Increase in IL-10 Secretion) is no less than 30%.
Take `CC(C)(CO)[C@@H](O)C(=O)NCCC(=O)NCCS` [Preparatory Ex 5]: the inhibition at 50 µM in test [5] was no less than 15%.

The values above are taken from patent US20230107216A1, “PANTETHEINE DERIVATIVES AND USES THEREOF” (Comet Therapeutics, Inc., priority 2018, published 2023).
